“Also recorded” adds a separate entry of the source. Read-outs that look alike come from different tables or passages of the source.
Tests used:
[1] = tested on: quinone reductase (QR) in Hepa 1c1c7 murine hepatoma cells; assay: Induction of QR (inducer potency, CD value) in Hepa 1c1c7 murine hepatoma cells; format: cell-based; conditions: for activity as inducers compared with sulforaphane and sulforaphene: in cell culture
Description: (§1) Assay of Inducer Potency. Inducer activity was measured in Hepa 1c1c7 murine hepatoma cells grown in 96-well microtiter plates (Prochaska and Santamaria, Anal. Biochem. 169:328-336 (1988); Prochaska et al., Proc. Natl. Acad. Sciences USA 89:2394-2398 (1992)). QR activity (based on the formation of the blue-brown reduced tetrazolium dye) was measured with an optical microtiter plate scanner in cell lysates prepared in one plate, and the cell density was determined in the second plate by staining with crystal violet. Quantitative information on specific activity of QR, the inducer potency, and the cytotoxicity of the extract or compound tested is obtained by computer analysis of the absorbances. One unit of inducer activity is defined as the amount that when added to a single microtiter well doubled the QR specific activity. The CD value is the concentration of a compound required to double the quinone reductase specific activity in Hepa 1c1c7 murine hepatoma cells.
Each of the analogs of sulforaphane was tested for the ability to induce QR in murine hepatoma cells by the assay described in Example 1.
Analogs were synthesized and tested in the hepatoma cell assay described in Example 1.

[2] = tested on: Hepa 1c1c7 murine hepatoma cells; conditions: Hepa 1c1c7 cells
Description: as §1

[3] = tested on: phase I and phase II enzymes in mutants of Hepa 1c1c7 cells; conditions: phase II selective = monofunctional
[4] = tested on: QR in cl mutant (which synthesizes inactive cytochrome P-450IA1); conditions: data not shown
[5] = tested on: QR in BP^r cl mutant (defective in transport of the liganded Ah receptor to the nucleus); conditions: data not shown
[6] = tested on: glutathione S-transferase (GST); assay: Induction of glutathione S-transferase (GST) in mouse tissues after gavage; format: in vivo, mouse (female CD-1)
Description: (§2) The compounds were administered to 6week-old female CD1 mice (4 or 5 mice
(§3) per group) by gavage in indicated single daily doses in 0.1 ml of Emulpho
(§4) EL 620P (GAF. Linden, NJ) for 5 days. Cytosols were prepared from the
(§5) tissues 24 hr after the last treatment and assayed for enzyme activities
(§6) (glutathione Stransferase was measured with 1chloro-2,4-dinitrobenzene).
(§7) The specific activities (nmol · min^-1 · mg^-1
(§8) ± SEM) of organs of vehicletreated #control mice were as follows.
(§9) 54 ± 5.8: GST. 439 ± 34. Data are presented as mean ± SEM.

[7] = tested on: QR (quinone reductase); assay: Induction of QR in mouse tissues after gavage; format: in vivo, mouse (female CD-1)
Description: as §2, §3, §4, §5, §6, §7, §8, §9

[8] = tested on: phase I and phase II enzymes in mutants of Hepa 1c1c7 cells; conditions: Prochaska et al. 1988; cited from earlier work
[9] = tested on: quinone reductase (QR) in Hepa 1c1c7 murine hepatoma cells; parameters: unit not given here; conditions: footnote 3, reported value; cited from earlier work
[10] = Mus musculus, Hepa-1c1c7, text, isolated (R)- and synthetic (R,S)-sulforaphane, read-out: CD values
[11] = 15 μmol per mouse per day, gavage, 5 days, glandular stomach
[12] = 15 μmol per mouse per day, gavage, 5 days, liver
[13] = 15 μmol per mouse per day, gavage, 5 days, lung
[14] = 15 μmol per mouse per day, gavage, 5 days, proximal small intestine
[15] = Mus musculus, Hepa-1c1c7, read-out: CD, Table 3, QR induction, hepatoma cell assay of Example 1
[16] = Mus musculus, Hepa-1c1c7, read-out: CD value, Table 1, QR induction, Hepa 1c1c7 cells
[17] = Table 3, QR induction, hepatoma cell assay of Example 1, read-out: CD

## C[S+]([O-])CCCCN=C=S (racemic) [(R,S)-sulforaphane]
[1]; [10]
  EC (2-fold QR specific activity): 0.2 to 0.4 µM
[2]
  cytotoxicity in words: relatively noncytotoxic

## C[S+]([O-])CCCCN=C=S (racemic) [Sulforaphane]
[3]
  inducer type: monofunctional inducer
[4]
  induction of QR in mutant cells: normal
[1]; Mus musculus, Hepa-1c1c7, Table 1, QR induction, Hepa 1c1c7 cells, read-out: CD value
  EC (2-fold QR specific activity): 0.4 to 0.8 µM
[1]; comparison in words, Table 1
  relative potency as inducers of QR: most potent monofunctional inducer that has been identified; also recorded: equipotent
[5]
  induction of QR in mutant cells: normal
[6]; 15 μmol daily for 5 days, lung
  rise in glutathione transferase activity in lung: to a lesser degree
[6]; 15 μmol per mouse per day, gavage, 5 days, forestomach
  Ratio of specific activities (treated/control), GST, Forestomach: 1.98 ± 0.08
[6]; [11]
  Ratio of specific activities (treated/control), GST, Glandular stomach: 2.97
[6]; [12]
  Ratio of specific activities (treated/control), GST, Liver: 1.86 ± 0.08
[6]; [13]
  Ratio of specific activities (treated/control), GST, Lung: 1.17
[6]; [14]
  Ratio of specific activities (treated/control), GST, Proximal small intestine: 2.13
[7]; 15 μmol daily for 5 days, lung
  rise in QR activity in lung: to a lesser degree
[7]; 15 μmol per mouse per day, gavage, 5 days, forestomach, *P < 0.05
  Ratio of specific activities (treated/control), QR, Forestomach: 1.70 ± 0.18
[7]; [11]
  Ratio of specific activities (treated/control), QR, Glandular stomach: 2.35 ± 0.06
[7]; [12]
  Ratio of specific activities (treated/control), QR, Liver: 2.45 ± 0.07
[7]; [13]
  Ratio of specific activities (treated/control), QR, Lung: 1.37 ± 0.14
[7]; [14]
  Ratio of specific activities (treated/control), QR, Proximal small intestine: 2.34 ± 0.19

## CS(=O)(=O)[C@@H]1CCC[C@@H](CN=C=S)C1 (relative stereo) [GHP 1079, cis- or trans-3-(methylsulfonyl)cyclohexylmethylisothiocyanate]
[1]; [15]
  EC (2-fold QR specific activity): 0.48 µM

## CS(=O)(=O)[C@@H]1CCC[C@H](CN=C=S)C1 (relative stereo) [GHP 1080, cis- or trans-3-(methylsulfonyl)cyclohexylmethylisothiocyanate]
[1]; [15]
  EC (2-fold QR specific activity): 0.41 µM

## C[S@@+]([O-])CCCCN=C=S [(R)-sulforaphane]
[1]; 8.9 mg isolated after HPLC/TLC/HPLC
  inducer activity: 558,000 inducer units
[1]; [10]
  EC (2-fold QR specific activity): 0.2 to 0.4 µM
[2]
  cytotoxicity in words: relatively noncytotoxic

## C[S+]([O-])CCCCCN=C=S (stereo not shown) [Alyssin]
[1]; [16]
  EC (2-fold QR specific activity): 0.95 µM
[1]
  activity as inducers compared with sulforaphane and sulforaphene: less active

## S=C=NCc1ccccc1 [Benzylisothiocyanate]
[8]
  inducer type: monofunctional inducer

## CSCCCCCN=C=S [Berteroin]
[1]; [16]
  EC (2-fold QR specific activity): 1.7 µM
[1]
  activity as inducers compared with sulforaphane and sulforaphene: less active

## CS(=O)(=O)CCCN=C=S [Cheirolin]
[1]; [16]
  EC (2-fold QR specific activity): 1.3 µM
[1]
  activity as inducers compared with sulforaphane and sulforaphene: less active

## CSCCCCCN=C=S [GHP 1001]
[1]; [15]
  EC (2-fold QR specific activity): 1.71 µM

## C[S+]([O-])CCCCCN=C=S (stereo not shown) [GHP 1002]
[1]; [15]
  EC (2-fold QR specific activity): 0.94 µM

## CS(=O)(=O)CCCCCN=C=S [GHP 1003, 1-isothiocyanato-5-methylsulfonylpentane]
[1]; [16]
  EC (2-fold QR specific activity): 0.98 µM
[1]; [15]
  EC (2-fold QR specific activity): 0.98 µM

## S=C=NCCCCCSSCCCCCN=C=S [GHP 1004]
[1]; [15]
  EC (2-fold QR specific activity): 0.83 µM

## C[S+]([O-])CCCCN=C=S (stereo not shown) [GHP 1005]
[1]; Mus musculus, Hepa-1c1c7, Table 3, QR induction, hepatoma cell assay of Example 1, read-out: CD
  EC (2-fold QR specific activity): 0.2 µM

## CS(=O)(=O)CCCCN=C=S [GHP 1007]
[1]; [15]
  EC (2-fold QR specific activity): 0.82 µM

## CSCCCN=C=S [GHP 1008]
[1]; [15]
  EC (2-fold QR specific activity): 3.52 µM

## C[S+]([O-])CCCN=C=S (stereo not shown) [GHP 1009]
[1]; [15]
  EC (2-fold QR specific activity): 2.36 µM

## CS(=O)(=O)CCCN=C=S [GHP 1010]
[1]; [15]
  EC (2-fold QR specific activity): 1.32 µM

## CSCc1ccccc1CN=C=S [GHP 1021]
[1]; [15]
  EC (2-fold QR specific activity): 4.3 µM

## CSc1ccccc1CCN=C=S [GHP 1022]
[1]; [15]
  EC (2-fold QR specific activity): 7.4 µM

## CSCCc1ccccc1N=C=S [GHP 1023]
[1]; [15]
  EC (2-fold QR specific activity): 100 µM

## COc1ccccc1N=C=S [GHP 1031]
[1]; [15]
  EC (2-fold QR specific activity): 100 µM

## S=C=Nc1ccccc1Cl [GHP 1032]
[1]; [15]
  EC (2-fold QR specific activity): 100 µM

## NC(=O)c1ccc(N=C=S)cc1 [GHP 1033]
[1]; [15]
  EC (2-fold QR specific activity): 100 µM

## COc1ccccc1CN=C=S [GHP 1041]
[1]; [15]
  EC (2-fold QR specific activity): 2.41 µM

## COc1cccc(CN=C=S)c1 [GHP 1042]
[1]; [15]
  EC (2-fold QR specific activity): 8.65 µM

## COc1ccc(CN=C=S)cc1 [GHP 1043]
[1]; [15]
  EC (2-fold QR specific activity): 25 µM

## COc1cccc(OC)c1CN=C=S [GHP 1044]
[1]; [15]
  EC (2-fold QR specific activity): 5.8 µM

## CN(C)c1ccccc1CN=C=S [GHP 1045]
[1]; [15]
  EC (2-fold QR specific activity): 12.5 µM

## CSc1ccccc1CN=C=S [GHP 1046]
[1]; [15]
  EC (2-fold QR specific activity): 6.8 µM

## Fc1ccccc1CN=C=S [GHP 1047]
[1]; [15]
  EC (2-fold QR specific activity): 13.1 µM

## S=C=NCc1ccccc1Cl [GHP 1048]
[1]; [15]
  EC (2-fold QR specific activity): 14.1 µM

## S=C=NCc1ccccc1Br [GHP 1049]
[1]; [15]
  EC (2-fold QR specific activity): 12.5 µM

## Cc1ccccc1CN=C=S [GHP 1050]
[1]; [15]
  EC (2-fold QR specific activity): 3.7 µM

## CCOc1ccccc1CN=C=S [GHP 1051]
[1]; [15]
  EC (2-fold QR specific activity): 2.5 µM

## S=C=NC1CCc2ccccc21 (stereo not shown) [GHP 1052]
[1]; [15]
  EC (2-fold QR specific activity): 38.9 µM

## CCc1ccccc1CN=C=S [GHP 1053]
[1]; [15]
  EC (2-fold QR specific activity): 12.5 µM

## CCOC(=O)CN=C=S [GHP 1061]
[1]; [15]
  EC (2-fold QR specific activity): 8.2 µM

## CS(=O)(=O)c1ccc(CN=C=S)cc1 [GHP 1062]
[1]; [15]
  EC (2-fold QR specific activity): 1.2 µM

## CS(=O)(=O)C1CC2CC1CC2N=C=S (stereo not shown) [GHP 1063]
[1]; [15]
  EC (2-fold QR specific activity): 1.02 µM

## CS(=O)(=O)C1CC2CC1CC2N=C=S (stereo not shown) [GHP 1064]
[1]; [17]
  EC (2-fold QR specific activity): 0.66 µM

## CC(=O)C1CC2CC1CC2N=C=S (stereo not shown) [GHP 1065]
[1]; [15]
  EC (2-fold QR specific activity): 0.77 µM

## CC(=O)C1CC2CC(N=C=S)C1C2 (stereo not drawn) [GHP 1066, exo-2-acetyl-6-isothiocyanatonorbornane]
[1]; [15]
  EC (2-fold QR specific activity): 0.26 µM

## CC(=O)C1CC2CC1CC2N=C=S (stereo not drawn) [GHP 1067, exo-2-acetyl-5-isothiocyanatonorbornane]
[1]; [17]
  EC (2-fold QR specific activity): 0.43 µM

## CS(=O)(=O)C1CC2CC(N=C=S)C1C2 (stereo not drawn) [GHP 1068, exo-2-isothiocyanato-6-methylsulfonylnorbornane]
[1]; [15]
  EC (2-fold QR specific activity): 0.15 µM

## COC(=O)C1CC2CC1CC2N=C=S (stereo not shown) [GHP 1069]
[1]; [15]
  EC (2-fold QR specific activity): 0.68 µM

## COC(=O)C1CC2CC(N=C=S)C1C2 (stereo not shown) [GHP 1070]
[1]; [15]
  EC (2-fold QR specific activity): 1.6 µM

## N#CC1CC2CC1CC2N=C=S (stereo not shown) [GHP 1071]
[1]; [15]
  EC (2-fold QR specific activity): 0.59 µM

## O=[N+]([O-])C1CC2CC1CC2N=C=S (stereo not shown) [GHP 1072]
[1]; [15]
  EC (2-fold QR specific activity): 1.05 µM

## CS(=O)(=O)[C@H]1CC[C@@H](N=C=S)CC1 [GHP 1073, cis-1-isothiocyanate-4-methylsulfonylcyclohexane]
[1]; [15]
  EC (2-fold QR specific activity): 0.44 µM

## CCOC(=O)C(CCS(C)(=O)=O)N=C=S (stereo not shown) [GHP 1074]
[1]; [15]
  EC (2-fold QR specific activity): 2.64 µM

## CC(O)C1CC2CC1CC2N=C=S (stereo not drawn) [GHP 1075, exo-2-(1'-hydroxyethyl)-5-isothiocyanatonorbornane]
[1]; [15]
  EC (2-fold QR specific activity): 0.45 µM

## OC1CC2CC1CC2N=C=S (stereo not shown) [GHP 1077]
[1]; [15]
  EC (2-fold QR specific activity): 1.85 µM

## CP(C)(=O)CCCCN=C=S [GHP 1078, 1-isothiocyanato-4-dimethylphosphonyl-butane]
[1]; [15]
  EC (2-fold QR specific activity): 0.43 µM

## CCCCC(=O)CCCCN=C=S [GHP 1081]
[1]; [15]
  EC (2-fold QR specific activity): 2 µM

## N#CCCCCN=C=S [GHP 1101]
[1]; [15]
  EC (2-fold QR specific activity): 1.97 µM

## COC(=O)CCCCN=C=S [GHP 1102]
[1]; [15]
  EC (2-fold QR specific activity): 2.81 µM

## O=C(O)CCCCN=C=S [GHP 1103]
[1]; [15]
  EC (2-fold QR specific activity): 2.19 µM

## CC(=O)CCCCN=C=S [GHP 1105, 6-isothiocyanato-2-hexanone]
[1]; [15]
  EC (2-fold QR specific activity): 0.23 µM

## CC(O)CCCCN=C=S (stereo not shown) [GHP 1106, 6-isothiocyanato-2-hexanol]
[1]; [15]
  EC (2-fold QR specific activity): 0.35 µM

## C[S+]([O-])CCCN=C=S (stereo not shown) [Iberin]
[1]; [16]
  EC (2-fold QR specific activity): 2.4 µM
[1]
  activity as inducers compared with sulforaphane and sulforaphene: less active

## CSCCCN=C=S [Iberverin]
[1]; [16]
  EC (2-fold QR specific activity): 3.5 µM
[1]
  activity as inducers compared with sulforaphane and sulforaphene: less active

## S=C=NC1CCCCC1 [cyclohexylisothiocyanate]
[9]
  CD value (reported): 14
